Here are results for 60 compounds from patent US10526291B2, “Potent dual BRD4-kinase inhibitors as cancer therapeutics” (H. Lee Moffitt Cancer Center and Research Institute, Inc., priority 2014, dated 2020).

This experiment addresses BRD4 (Homo sapiens, UniProt O60885). Description: Differential Scanning Fluorimetry (DSF), stability of BRD4 upon ligand binding. The note with it: for ΔTm at 4 µM: 100 μM protein, 4 μM compound and 2% DMSO; for IC50: estimated. As to the method:
DSF=Differential Scanning Fluorimetry; provides a measure of the increased stability of BRD4 upon ligand binding The DSF experiment was run at 100 μM protein, 4 μM compound and 2% DMSO.

One may read the ΔTm as the change in melting temperature against a reference sample. A word on the IC50: it is the midpoint of a concentration-inhibition curve.

As for `CN1CCN(c2ccc(Nc3ncc(Cl)c(Nc4cccc(C(C)(C)C)c4)n3)cc2)CC1`, the ΔTm at 4 µM turned out to be 0.12 ± 0.053 °C and the concentration for half-maximal inhibition (IC50) was 19800 nM.
With `COc1cc(Nc2ncc(C(F)(F)F)c(Nc3ccc(N4CCN(C)CC4)cc3)n2)ccc1Cl`, the ΔTm at 4 µM was 0.56 ± 0.37 °C and the 50% inhibitory concentration (IC50) is 14100 nM.
Consider `CC(C)NS(=O)(=O)c1cccc(Nc2nc(Nc3ccc(N4CCN(C)CC4)cc3)ncc2Cl)c1`, for which the thermal shift (ΔTm) at 4 µM was 4.6 ± 0.12 °C and the IC50 is 630 nM.
Taken in the same sequence, the figures for `CC(C)(C)NS(=O)(=O)c1cccc(Nc2nc(Nc3ccc(N4CCOCC4)cc3)ncc2Cl)c1` were -0.071 ± 0.042 °C and 22900 nM.
Consider `CN1CCN(c2ccc(Nc3ncc(Cl)c(Nc4cccc(S(=O)(=O)NC(C)(C)C)c4)n3)cc2)CC1`, for which the ΔTm at 4 µM amounted to 5.7 ± 0.054 °C and the 50% inhibitory concentration (IC50) is 270 nM.
Taken in the same sequence, the figures for `Cc1cnc(Nc2ccc(N3CCN(C)CC3)cc2)nc1Nc1cccc(C(C)(C)C)c1` were 2.9 ± 0.12 °C and 2330 nM.
In the case of `CC(C)NS(=O)(=O)c1cccc(Nc2nc(N3CCN(c4ccc(N)cc4)CC3)ncc2Br)c1`, the ΔTm at 4 µM was found to be 0.16 °C and the concentration for half-maximal inhibition (IC50) is 19200 nM.
On the same counts, the results for `COc1ccc(Nc2nc(Nc3ccc(N4CCN(C)CC4)cc3)ncc2Cl)cc1OC` are 5.1 ± 0.039 °C and 430 nM.
For `COc1cccc(Nc2nc(Nc3ccc(N4CCN(C)CC4)cc3)ncc2C)c1`, the ΔTm at 4 µM was found to be 3.2 ± 0.083 °C and the half-maximal inhibitory concentration (IC50) is 1850 nM.
On the same counts, the results for `CCOc1cccc(Nc2nc(Nc3ccc(N4CCN(C)CC4)cc3)ncc2C)c1` are 5.4 ± 0.15 °C and 340 nM.
Take `CC(C)Oc1cccc(Nc2nc(Nc3ccc(N4CCN(C)CC4)cc3)ncc2Cl)c1`: the ΔTm at 4 µM came to 4.8 ± 0.12 °C and the 50% inhibitory concentration (IC50) is 540 nM.
Consider `Cc1cnc(Nc2ccc(N3CCN(C)CC3)cc2)nc1Nc1cccc(OC(C)C)c1`, for which the ΔTm at 4 µM worked out at 6.6 ± 0.1 °C and the IC50 was 140 nM.
Regarding `CCOC(=O)c1cnc(Nc2ccc(N3CCN(C)CC3)cc2)nc1Nc1ccc(Cl)c(OC)c1`, the ΔTm at 4 µM stood at 0.24 ± 0.13 °C and the IC50 was 18000 nM.
Turning to `CCOC(=O)c1cnc(Nc2ccc(N3CCN(C)CC3)cc2)nc1Nc1cccc(S(=O)(=O)NC(C)(C)C)c1`, the ΔTm at 4 µM was -0.0056 ± 0.24 °C and the IC50 was greater than 20000 nM.
Consider `Cc1cnc(Nc2ccc(N3CCN(C)CC3)cc2)nc1Nc1ccc2c(c1)OCCO2`, for which the shift in melting temperature (ΔTm) at 4 µM amounted to 4.4 ± 0.11 °C and the IC50 is 740 nM.
With `Cc1cnc(Nc2ccc(N3CCN(C)CC3)cc2)nc1Nc1ccc2c(c1)OCO2`, the shift in melting temperature (ΔTm) at 4 µM came to 0.79 ± 0.079 °C and the 50% inhibitory concentration (IC50) is 12000 nM.
`COc1cc(Nc2nc(Nc3ccc(N4CCN(C)CC4)cc3)ncc2Cl)cc(OC)c1Cl`: the shift in melting temperature (ΔTm) at 4 µM amounted to 2 ± 0.42 °C and the half-maximal inhibitory concentration (IC50) was 4700 nM.
Regarding `COc1cc(Nc2cc(C)nc(Nc3ccc(N4CCN(C)CC4)cc3)n2)ccc1Cl`, the ΔTm at 4 µM is 2.6 ± 0.095 °C and the IC50 was 2900 nM.
Turning to `COc1cc(Nc2nc(Nc3ccc(N4CCN(C)CC4)cc3)ncc2C)c(OC)cc1Cl`, the ΔTm at 4 µM was determined as 0.57 ± 0.25 °C and the IC50 is 14000 nM.
Regarding `COc1cc(Nc2nc(Nc3ccc(N4CCNCC4)cc3)ncc2C)ccc1Cl`, the ΔTm at 4 µM turned out to be 7.1 ± 0.15 °C and the IC50 is 92 nM.
Take `COc1cc(Nc2nc(Nc3ccc(N4CCN(C)CC4)cc3)ncc2Cl)cc(OC)c1`: the ΔTm at 4 µM stood at 3.5 ± 0.17 °C and the IC50 is 1500 nM.
As for `COc1cc(Nc2ccnc(Nc3ccc(N4CCN(C)CC4)cc3)n2)ccc1Cl`, the ΔTm at 4 µM turned out to be 2.5 ± 0.069 °C and the concentration for half-maximal inhibition (IC50) is 3200 nM.
Regarding `CCCc1cnc(Nc2ccc(N3CCN(C)CC3)cc2)nc1Nc1ccc(Cl)c(OC)c1`, the ΔTm at 4 µM turned out to be 3.1 ± 0.075 °C and the IC50 was 2000 nM.
`COc1cc(Nc2nc(Nc3ccc(N4CCN(C)CC4)cc3)ncc2C(C)C)ccc1Cl`: the ΔTm at 4 µM stood at 1.4 ± 0.11 °C and the IC50 is 7400 nM.
On to `COc1cc(Nc2nc(Nc3ccc(N4CCNCC4)cc3)ncc2Br)ccc1Cl`, for which the ΔTm at 4 µM was found to be 4.5 ± 0.1 °C and the half-inhibitory concentration (IC50) was 680 nM.
For the compound `CCOc1cc(Nc2nc(Nc3ccc(N4CCN(C)CC4)cc3)ncc2Cl)ccc1Cl`, the ΔTm at 4 µM was determined as 3.7 ± 0.12 °C and the IC50 is 1300 nM.
On the same counts, the results for `CCOc1cc(Nc2nc(Nc3ccc(N4CCN(C)CC4)cc3)ncc2C)ccc1Cl` are 6.4 ± 0.0066 °C and 160 nM.
On the same counts, the results for `Cc1cnc(Nc2ccc(N3CCN(C)CC3)cc2)nc1Nc1ccc(Cl)c(OC(C)C)c1` are 6.3 ± 0.1 °C and 170 nM.
For the compound `CN1CCN(c2ccc(Nc3nc(Nc4cccc(S(=O)(=O)NC(C)(C)C)c4)c4ccccc4n3)cc2)CC1`, the shift in melting temperature (ΔTm) at 4 µM was found to be 2.6 ± 0.081 °C and the 50% inhibitory concentration (IC50) was 2900 nM.
For the compound `Cc1cnc(Nc2ccc(N3CCN(C)CC3)cc2)nc1Nc1cccc(NS(C)(=O)=O)c1`, the ΔTm at 4 µM amounted to 4.6 ± 0.13 °C and the half-maximal inhibitory concentration (IC50) was 630 nM.
Turning to `CN1CCN(c2ccc(Nc3nc(Nc4cccc(NS(=O)(=O)C5CC5)c4)c4ccccc4n3)cc2)CC1`, the ΔTm at 4 µM turned out to be 5.8 ± 0.11 °C and the IC50 was 260 nM.
For the compound `Cc1cnc(Nc2ccc(N3CCN(C)CC3)cc2)nc1Nc1cccc(NC(=O)C(C)(C)C)c1`, the thermal shift (ΔTm) at 4 µM was 3.5 ± 0.19 °C and the half-maximal inhibitory concentration (IC50) was 1500 nM.
Consider `Cc1cnc(Nc2ccc(N3CCN(C)CC3)cc2)nc1Nc1cccc(NC(=O)C(C)C)c1`, for which the ΔTm at 4 µM was 4.1 ± 0.12 °C and the half-maximal inhibitory concentration (IC50) was 900 nM.
`Cc1cnc(Nc2ccc(N3CCN(C)CC3)cc2)nc1Nc1cccc(NC(=O)C2CC2)c1`: the shift in melting temperature (ΔTm) at 4 µM stood at 4.6 ± 0.21 °C and the half-maximal inhibitory concentration (IC50) is 630 nM.
Take `Cc1cnc(Nc2ccc(N3CCN(C)CC3)cc2)nc1Nc1cccc(NC(=O)NC(C)C)c1`: the shift in melting temperature (ΔTm) at 4 µM was 2.1 ± 0.1 °C and the IC50 is 4300 nM.
In the case of `CC(C)NS(=O)(=O)c1cccc(Nc2nc(Nc3ccc(N4CCN(C)CC4)cc3)nc3ccccc23)c1`, the ΔTm at 4 µM turned out to be 5 ± 0.13 °C and the half-maximal inhibitory concentration (IC50) is 480 nM.
For `CN1CCN(c2ccc(Nc3ncc(C(=O)O)c(Nc4cccc(S(=O)(=O)NC(C)(C)C)c4)n3)cc2)CC1`, the thermal shift (ΔTm) at 4 µM is -0.2 ± 0.2 °C and the IC50 is 25000 nM.
Taken in the same sequence, the figures for `COc1cc(Nc2nc(Nc3ccc(N4CCN(C)CC4)cc3)ncc2C(=O)O)ccc1Cl` were 0.0094 ± 0.11 °C and 22000 nM.
As for `Cc1ccc(Nc2nc(Nc3ccc(N4CCN(C)CC4)cc3)nc3ccccc23)cc1S(=O)(=O)NC(C)(C)C`, the ΔTm at 4 µM turned out to be 6.1 ± 0.032 °C and the IC50 was 200 nM.
Turning to `Cc1ccc(Nc2nc(Nc3ccc(N4CCN(C)CC4)cc3)ncc2C)cc1S(=O)(=O)NC(C)(C)C`, the thermal shift (ΔTm) at 4 µM is 8.6 ± 0.09 °C and the IC50 is 30 nM.
In the case of `CN1CCN(c2ccc(Nc3ncc(C(N)=O)c(Nc4cccc(S(=O)(=O)NC(C)(C)C)c4)n3)cc2)CC1`, the ΔTm at 4 µM came to 2.7 ± 0.0089 °C and the IC50 was 2700 nM.
Regarding `CN1CCN(c2ccc(Nc3nc4c(c(Nc5cccc(S(=O)(=O)NC(C)(C)C)c5)n3)CCC4)cc2)CC1`, the ΔTm at 4 µM turned out to be 4.9 ± 0.11 °C and the half-inhibitory concentration (IC50) is 500 nM.
As for `CC(C)NS(=O)(=O)c1cccc(Nc2nc(Nc3ccc(N4CCN(C)CC4)cc3)nc3c2CCC3)c1`, the thermal shift (ΔTm) at 4 µM came to 3.8 ± 0.056 °C and the concentration for half-maximal inhibition (IC50) was 1200 nM.
With `CN1CCN(c2ccc(Nc3nc4c(c(Nc5cccc(S(=O)(=O)NC6CC6)c5)n3)CCC4)cc2)CC1`, the ΔTm at 4 µM was 4.9 ± 0.099 °C and the 50% inhibitory concentration (IC50) is 520 nM.
On to `CC(C)NS(=O)(=O)c1cccc(Nc2nc(Nc3ccc(N4CCN(C)CC4)cc3)nc3c2COC3)c1`, for which the shift in melting temperature (ΔTm) at 4 µM was 0.6 ± 0.14 °C and the IC50 is 14000 nM.
For the compound `CC(C)S(=O)(=O)Nc1cccc(Nc2nc(Nc3ccc(N4CCN(C)CC4)cc3)nc3c2COC3)c1`, the ΔTm at 4 µM came to 3.9 ± 0.24 °C and the half-maximal inhibitory concentration (IC50) was 1000 nM.
`CN1CCN(c2ccc(Nc3nc4c(c(Nc5cccc(NS(=O)(=O)C6CC6)c5)n3)COC4)cc2)CC1`: the ΔTm at 4 µM worked out at 1.3 ± 0.12 °C and the concentration for half-maximal inhibition (IC50) is 7900 nM.
Take `CN1CCN(c2ccc(Nc3nc4c(c(Nc5cccc(NS(=O)(=O)C(C)(C)C)c5)n3)COC4)cc2)CC1`: the shift in melting temperature (ΔTm) at 4 µM stood at 6 ± 0.13 °C and the IC50 is 220 nM.
On to `CN1CCN(c2ccc(Nc3nc4c(c(Nc5cccc(NS(=O)(=O)C(C)(C)C)c5)n3)CCC4)cc2)CC1`, for which the thermal shift (ΔTm) at 4 µM came out at 6.4 ± 0.12 °C and the IC50 was 150 nM.
On to `CC(C)S(=O)(=O)Nc1cccc(Nc2nc(Nc3ccc(N4CCN(C)CC4)cc3)nc3c2CCC3)c1`, for which the ΔTm at 4 µM came to 4.3 ± 0.14 °C and the half-inhibitory concentration (IC50) is 770 nM.
Turning to `CN1CCN(c2ccc(Nc3ncc(C(N)=O)c(Nc4cccc(NS(=O)(=O)C5CC5)c4)n3)cc2)CC1`, the ΔTm at 4 µM worked out at 2.3 ± 0.073 °C and the IC50 was 3800 nM.
With `Cc1cnc(Nc2ccc(N3CCN(C)CC3)cc2)nc1Nc1ccc(Cl)c(NS(=O)(=O)C2CC2)c1`, the ΔTm at 4 µM was 7 ± 0.14 °C and the IC50 was 100 nM.
Consider `CN1CCN(c2ccc(Nc3nc4c(c(Nc5ccc(Cl)c(NS(=O)(=O)C6CC6)c5)n3)CCC4)cc2)CC1`, for which the ΔTm at 4 µM was determined as 4.6 ± 0.05 °C and the concentration for half-maximal inhibition (IC50) is 620 nM.
In the case of `CN1CCN(c2ccc(Nc3nc4c(c(Nc5ccc(Cl)c(NS(=O)(=O)C6CC6)c5)n3)COC4)cc2)CC1`, the shift in melting temperature (ΔTm) at 4 µM was 5.4 ± 0.2 °C and the IC50 is 350 nM.
Consider `CN1CCN(c2ccc(Nc3ncc(F)c(Nc4cccc(NS(=O)(=O)C(C)(C)C)c4)n3)cc2)CC1`, for which the shift in melting temperature (ΔTm) at 4 µM came to 5.2 ± 0.15 °C and the half-maximal inhibitory concentration (IC50) is 400 nM.
`CN1CCN(c2ccc(Nc3ncc(F)c(Nc4ccc(Cl)c(NS(=O)(=O)C(C)(C)C)c4)n3)cc2)CC1`: the ΔTm at 4 µM was 7.2 ± 0.17 °C and the IC50 was 85 nM.
On the same counts, the results for `COc1cc(C(=O)NC2CCN(C)CC2)ccc1Nc1ncc(C)c(Nc2cc(OC)c(Cl)c(OC)c2)n1` are 3 ± 0.11 °C and 2200 nM.
With `COc1cc(Nc2nc(Nc3ccc(C(=O)NC4CCN(C)CC4)cc3)ncc2C)cc(OC)c1Cl`, the ΔTm at 4 µM worked out at 5.9 ± 0.063 °C and the half-maximal inhibitory concentration (IC50) was 2300 nM.
Taken in the same sequence, the figures for `Cc1cnc(Nc2ccc(C(=O)NC3CCN(C)CC3)cc2)nc1Nc1cccc(NS(=O)(=O)C(C)(C)C)c1` were 7.6 ± 0.047 °C and 62 nM.
As for `Cc1cnc(Nc2ccc(N3CCN(C)CC3)cc2)nc1Nc1cccc(NS(=O)(=O)N(C)C)c1`, the thermal shift (ΔTm) at 4 µM came out at 3.3 ± 0.36 °C and the IC50 is 1800 nM.
